The values below come from the METLIN SMRT retention time set (Domingo-Almenara et al. 2019).

This series in a line: gradient 5% acetonitrile 3 min, to 50% in 2 min, to 85% in 15 min, held 3 min, 100 µL/min. To be noted: column: Zorbax Extend-C18 2.1 x 50 mm; eluents: water / acetonitrile, 0.1% formic acid. The essentials: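 Each retention time is based on an adduct peak selected computationally and verified by manual inspection. Measurements used HPLC–quadrupole time-of-flight mass spectrometry in positive and negative ionization mode on mixtures of ~100 pure standards. Chromatography ran on a Zorbax Extend-C18 column (2.1 × 50 mm, 1.8 μm) at 100 μL/min with water and acetonitrile, each containing 0.1% formic acid, and dead and dwell volumes of 40 μL and 900 μL.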
Molecule `CN1CCN(C(CNC(=O)C(=O)Nc2ccc(F)cc2F)c2ccc3c(c2)OCO3)CC1` (stereo not drawn) registered an RP-LC retention time of 685 s.
As for `CCc1cccc(C)c1Nc1c(-c2ccc(F)cc2)nc2cnccn12`, the figure is 1010 s.
Regarding `CSc1cccc(NC(=O)N2CCC(c3nc(C(=O)N(C)C)c(C)o3)CC2)c1`, the RP-LC retention time turned out to be 732 s.
The result for `CCNC(=O)N1[C@H]2CC[C@@H]1c1cnc(-c3ccccc3)nc1C2` reads 735 s.
With `CN1CCC(Oc2ncccc2NS(=O)(=O)N(C)C)CC1`, the RP-LC retention time amounted to 575 s.
As for `Cc1cccc(Cc2c(C)nc3c(C(=O)O)cnn3c2C)c1`, the figure is 788 s.
The result for `COc1cc(OC)c(NC(=O)Cn2cccc2-c2nc(-c3ccc4c(c3)OCO4)no2)cc1Cl` reads 1110 s.
The molecule `NS(=O)(=O)c1ccc(NS(=O)(=O)c2ccc3onc(C(=O)N4CCCCC4)c3c2)cc1` came in with an RP-LC retention time of 782 s.
As to `COc1cccc(-c2csc(Cc3nc(-c4cccc(C)c4)no3)n2)c1`, the RP-LC retention time turned out to be 1250 s.
Turning to `CCN(CC)CCNC(=O)c1cc(S(=O)(=O)N2CCCCC2)ccc1Cl`, the RP-LC retention time is 637 s.
`COCCNc1nnc(-c2nc(-c3ccc(F)cc3)no2)c2ccccc12`: the RP-LC retention time was 801 s.
The result for `CCCNC(=O)NC1CCN(C2=NS(=O)(=O)C(c3ccc(CC)cc3)=C2C)CC1` reads 787 s; that for `CCc1nn2c(CNC(=O)c3cccc(C)c3)c(-c3ccccc3)nc2s1`, 936 s.
Molecule `O=C(Cn1c(=O)oc2ccccc21)N1CCCC(COCc2ccccc2)C1` (stereo not drawn) displayed an RP-LC retention time of 897 s.
As for `CCc1ccc(NC(=O)c2ccc(=O)n(CCN3CCCC3)c2)cc1`, the figure is 650 s.
As for `Cc1ccc(-c2cc(N3CCOCC3)c3cc(NC(=O)NC4CCCCC4)ccc3n2)cc1`, the figure is 787 s; as for `CCN1c2cc(Cl)ccc2C(=O)NC12CCN(C(=O)NCc1ccc(C)cc1)CC2`, 888 s; as for `O=C(NCc1cccc(F)c1)N1CCC(Nc2cccnc2)C1` (stereo not drawn), 606 s.
`CC(C)n1nnc2cc(S(=O)(=O)N(C)CC(=O)N3CCN(c4ccccn4)CC3)ccc21` returned an RP-LC retention time of 607 s.
`O=C(CCCN1CCC2(CC1)C(=O)NCN2c1ccccc1)c1ccc(F)cc1` gave an RP-LC retention time of 725 s.
As for `O=C(NCc1cc(-c2ccccc2F)on1)c1ccccc1Br`, the figure is 810 s; as for `O=C(C1CCN(c2nc3ccc(-c4cccs4)nc3s2)CC1)N1CCCCC1`, 911 s; as for `Cc1c(F)cccc1NC(=O)Nc1ccc(Nc2cc(-n3cccn3)ncn2)cc1`, 866 s.
`Cc1[nH]c(-c2ccccc2)cc1C(=O)NC1CCCC1` returned an RP-LC retention time of 845 s.
As for `COC(=O)c1c(NCCc2c[nH]c3ccccc23)c2ccccc2[nH]c1=O`, the figure is 744 s; as for `Cc1ccc(Nc2c(-c3ccc(Cl)cc3)nc3ccc(C)cn23)cc1`, 836 s.
The result for `O=C(Nc1ccc(-c2cn3cccnc3n2)cc1)c1cccs1` reads 629 s; that for `Cc1noc(-c2ccnc(-n3cnc(C(=O)NCc4cccc(Cl)c4)c3)c2)n1`, 760 s.
As for `CCC(C)C(NC(=O)c1ccc(C)cc1C)C(=O)Nc1nc2ccccc2[nH]1` (stereo not drawn), the RP-LC retention time amounted to 786 s.
The result for `Cc1ccc(C(=O)N2C[C@@H]3C[C@H](NC(=O)c4cccs4)[C@H]2C3)cn1` reads 581 s.
As for `Cc1cccc(-c2ncccc2CNS(=O)(=O)c2ccc(F)cc2)c1`, the figure is 724 s; as for `CCCNC(=O)N1CCc2c(c(-c3nc(-c4ccccc4)no3)nn2C)C1`, 825 s.
`Cc1c(S(=O)(=O)N2CCC(C(=O)NCc3csc(-c4ccccc4)n3)CC2)cnn1C(F)F`: the RP-LC retention time was 868 s.
Regarding `COC[C@@H]1CN(C(=O)c2cc(C)oc2C)C[C@H]1c1nc(C2CC2)no1`, the RP-LC retention time was determined as 815 s.
Turning to `O=C(c1ccc(Cl)s1)N1CCc2nc(-c3ccc(F)cc3)ncc2C1`, the RP-LC retention time is 1070 s.
The result for `Cc1ccc(C2C(S(=O)(=O)c3ccc(C)cc3)=C(O)C(=O)N2Cc2ccco2)cc1` (stereo not drawn) reads 976 s; that for `CCOc1ccc(NCC(O)Cn2c3ccccc3n3c(=O)cc(C)c(C#N)c23)cc1` (stereo not drawn), 668 s.
For the molecule `COc1cc(OC)cc(-c2nc(-c3cn(Cc4cccc(F)c4)nn3)no2)c1`, the RP-LC retention time is 1030 s.
As for `CCOc1ccccc1CN1CCc2nc(Nc3ccc(F)cc3)ncc2C1`, the figure is 616 s; as for `Cc1ccc(-c2cc3c(=O)n(Cc4noc(CN5CCCC5)n4)ccn3n2)cc1C`, 697 s.
As for `CC(O)(CCc1ccccc1)CNC(=O)CN1C(=O)CCC1=O` (stereo not drawn), the figure is 631 s; as for `COc1ccc(-c2nnc(-c3cccnc3N3CCN(c4ccc(C)cc4)CC3)o2)cc1`, 1060 s.
Take `CCc1nc2c(NC(=O)c3ccccc3Br)cccn2n1`: the RP-LC retention time was determined as 773 s.
The result for `O=C(CN1CN(c2ccccc2)c2ncccc2S1(=O)=O)Nc1ccccc1Cl` reads 934 s; that for `CCCNc1nnc(-c2nc(C3CC3)no2)c2ccccc12`, 660 s; that for `Cc1ccc(-c2nnc(Cc3nc(-c4ccc(Cl)cc4)no3)o2)cc1C`, 1220 s.
The result for `COc1cccc(-n2nnc(-c3nsc(Nc4ccc(OC)c(Cl)c4)n3)c2C)c1` reads 1020 s; that for `COc1ccc(-c2nc3ncc4c(=O)n(CCc5c[nH]c6ccc(F)cc56)ccc4n3n2)cc1`, 935 s; that for `CCc1sc(NC(=O)CS(=O)(=O)c2ccc(C)cc2)nc1-c1ccccc1`, 1040 s.
The molecule `O=C(NCCN1CCOCC1)c1csc(N2CCN(c3ccccc3)CC2)n1` returned an RP-LC retention time of 650 s.
As for `CCCn1cnc2cc(CNC(=O)c3cccc(C(F)(F)F)c3)ccc21`, the figure is 690 s; as for `NC(=O)CNC(=O)c1cc2c(s1)N(CC1CC1)CCCC2`, 692 s.
The molecule `CCOC(=O)c1cnc(N2CCN(Cc3ccc4c(c3)OCO4)CC2)[nH]c1=O` showed an RP-LC retention time of 605 s.
In turn, `CCN1CCN(c2cc(C(=O)O)c3cc(NS(=O)(=O)c4cc(F)ccc4C)ccc3n2)CC1` came in with an RP-LC retention time of 607 s.
Molecule `CCOc1ccccc1NC(=O)N1CCc2nc(-c3ccc(OC)cc3)ncc2C1` displayed an RP-LC retention time of 1000 s.
Molecule `Cc1cnc(C2CC2)n1CCNS(=O)(=O)Cc1ccccc1F` returned an RP-LC retention time of 619 s.
As for `Cc1noc(-c2ccc(-n3cnc(C(=O)NCc4ccc(Cl)cc4)c3)nc2)n1`, the figure is 865 s; as for `Cc1ccc(C(=O)Nc2nc(-c3ccc4c(c3)N(C)C(=O)CO4)cs2)cc1`, 952 s.
As for `Cc1ccc2c(c1)N(S(C)(=O)=O)CCC(C(=O)Nc1ccc(Cl)cc1C)O2` (stereo not drawn), the figure is 1000 s; as for `Cc1nc(C2(C)CCN(S(=O)(=O)c3ccc(F)c(C)c3)CC2)no1`, 927 s.
The result for `O=S(=O)(c1ccc(Cl)s1)N1CCc2nc(-c3ccc(Cl)cc3)ncc2C1` reads 1310 s.
As for `NCCC1CCN(C(=O)Nc2cc(F)cc(F)c2)CC1`, the RP-LC retention time worked out at 599 s.
The result for `CCN(CCNC(=O)C1CCCN(c2ncnc3c2nc2n3CCCCC2)C1)Cc1ccccc1` (stereo not drawn) reads 639 s.
In the case of `O=C(c1ccccc1)C(c1ccccc1)C1(O)C(=O)Nc2c(Cl)cc(Cl)cc21` (stereo not drawn), the RP-LC retention time was found to be 949 s.
Molecule `Cc1ccc(-c2noc(Cc3nnc(-c4ccc(C)c(C)c4)o3)n2)cc1` yielded an RP-LC retention time of 1200 s.
As for `COc1ccc(NC(=O)N2CCOc3ccc(Cl)cc32)cc1OC`, the figure is 870 s; as for `O=C(NCc1ccc2c(c1)OCO2)c1ccc(-c2cc(N3CCOCC3)ncn2)cc1`, 643 s.
The result for `O=C(NC1CC1)[C@@H]1C[C@H](Oc2ccccc2)CN1C(=O)c1ccoc1` reads 709 s.
The molecule `Cc1ccc(/C=C/S(=O)(=O)N2CCN(c3ccc(-c4cccs4)nn3)CC2)cc1` yielded an RP-LC retention time of 929 s.
As for `O=C(CN1C(=O)CCC1=O)Nc1nc(-c2ccc(Cl)cc2Cl)cs1`, the RP-LC retention time is 850 s.
For `Cc1ccc(CNC(=O)C2CC(=O)N(c3ccc4c(c3)CCN4C(=O)C3CC3)C2)cc1` (stereo not drawn), the RP-LC retention time worked out at 756 s.
As for `CCOC(=O)C1CCN(C(=O)C2CCc3nc(N(CC)CC)ncc3C2)CC1` (stereo not drawn), the figure is 630 s; as for `CN(C)C(=O)Oc1cc(OC(=O)N(C)C)cc(C(O)CNC(C)(C)C)c1` (stereo not drawn), 688 s; as for `O=C(NCc1ccc(F)cc1)C1CCN(c2cnc3nccnc3c2)CC1`, 769 s.
In turn, `Cn1cc2c3c(cccc31)CN(C(=O)c1ccccc1Cl)CC2` displayed an RP-LC retention time of 975 s.
Turning to `COC(=O)C1C(=O)C2=C(CC1C)NC(C)=C(C(=O)OC(C)C)C2c1ccccc1F` (stereo not drawn), the RP-LC retention time stood at 954 s.
Take `O=C(CCc1nc2ccccc2s1)N1[C@H]2CC[C@@H]1c1cnc(-c3ccc(F)cc3)nc1C2`: the RP-LC retention time was determined as 960 s.
The result for `CO[C@H]1C(=O)N(C(C)C)[C@H]1C1CCN(S(=O)(=O)c2cccc3nsnc23)CC1` reads 831 s.
